Experimental data reported in ChEMBL document CHEMBL1201862, “PubChem BioAssay data set” (2004).
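96-well plates; 48 h exposure; 5 concentrations. Endpoints by linear interpolation between flanking doses. Not reached: highest tested concentration assigned. GI50 marks 50% less growth.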 Calls of active or inactive are those of the source. Rule as the data show it: active = GI50 up to about 1.1 µM and inactive = higher.

Experiments:
Experiment in all cases: inhibition of tumour cell growth, NCI panel, 48 h
CAKI-1 = tested on: CAKI-1
MDA-MB-435 = tested on: MDA-MB-435
T47D = tested on: T47D
UACC-257 = tested on: UACC-257
PC-3 = tested on: PC-3
UACC-62 = tested on: UACC-62
SNB-19 = tested on: SNB-19
U-251 = tested on: U-251
Hs-578T = tested on: Hs-578T
A549 = tested on: A549
Malme-3M = tested on: Malme-3M
MDA-MB-231 = tested on: MDA-MB-231
SK-MEL-5 = tested on: SK-MEL-5
MCF7 = tested on: MCF7
SK-MEL-2 = tested on: SK-MEL-2
KM12 = tested on: KM12
M14 = tested on: M14
MDA-N = tested on: MDA-N
NCI-H226 = tested on: NCI-H226
SF-295 = tested on: SF-295
HT-29 = tested on: HT-29
HCT-116 = tested on: HCT-116
UO-31 = tested on: UO-31
BT-549 = tested on: BT-549
RXF 393 = tested on: RXF 393
NCI/ADR-RES = tested on: NCI/ADR-RES
TK-10 = tested on: TK-10
786-0 = tested on: 786-0
SK-OV-3 = tested on: SK-OV-3
OVCAR-8 = tested on: OVCAR-8
SN12C = tested on: SN12C
SW-620 = tested on: SW-620
SK-MEL-28 = tested on: SK-MEL-28
NCI-H23 = tested on: NCI-H23
NCI-H460 = tested on: NCI-H460
ACHN = tested on: ACHN
A498 = tested on: A498
OVCAR-4 = tested on: OVCAR-4
RPMI-8226 = tested on: RPMI-8226
SF-539 = tested on: SF-539
HCT-15 = tested on: HCT-15
K562 = tested on: K562
OVCAR-3 = tested on: OVCAR-3
HOP-92 = tested on: HOP-92
LOX IMVI = tested on: LOX IMVI
OVCAR-5 = tested on: OVCAR-5
NCI-H522 = tested on: NCI-H522
HOP-62 = tested on: HOP-62
DU-145 = tested on: DU-145
COLO 205 = tested on: COLO 205
CCRF-CEM = tested on: CCRF-CEM
HCC 2998 = tested on: HCC 2998
HL-60 = tested on: HL-60
IGROV-1 = tested on: IGROV-1
MOLT-4 = tested on: MOLT-4
EKVX = tested on: EKVX
SF-268 = tested on: SF-268
SNB-75 = tested on: SNB-75
SR = tested on: SR

In the case of `C=CCN(c1cc(O)c2c(c(C)cn2S(=O)(=O)c2ccccc2)c1[N+](=O)[O-])S(C)(=O)=O`, the GI50 (CAKI-1) is reported as > 100 µM (inactive), the GI50 (MDA-MB-435) is reported as 29.2 µM (inactive) and the GI50 (T47D) is reported as 40.7 µM (inactive). For the same molecule, the GI50 (UACC-257) was > 100 µM (inactive), the GI50 (PC-3) was > 100 µM (inactive) and the GI50 (UACC-62) was > 10 µM (inactive). For the same molecule, the GI50 (SNB-19) was > 100 µM (inactive), the GI50 (U-251) was > 100 µM (inactive) and the GI50 (Hs-578T) was > 100 µM (inactive). The GI50 (A549) was 56.5 µM (inactive), the GI50 (Malme-3M) was > 100 µM (inactive) and the GI50 (MDA-MB-231) was > 100 µM (inactive). For the same molecule, the GI50 (SK-MEL-5) was 51.4 µM (inactive), the GI50 (MCF7) was > 100 µM (inactive) and the GI50 (SK-MEL-2) was > 100 µM (inactive). The GI50 (KM12) was > 100 µM (inactive), the GI50 (M14) was > 100 µM (inactive) and the GI50 (MDA-N) was 36.9 µM (inactive). For the same molecule, the GI50 (NCI-H226) was > 100 µM (inactive), the GI50 (SF-295) was 48.5 µM (inactive) and the GI50 (HT-29) was > 100 µM (inactive). The GI50 (HCT-116) was 59.2 µM (inactive), the GI50 (UO-31) was > 100 µM (inactive) and the GI50 (BT-549) was > 100 µM (inactive). For the same molecule, the GI50 (RXF 393) was 56 µM (inactive), the GI50 (NCI/ADR-RES) was > 100 µM (inactive) and the GI50 (TK-10) was > 100 µM (inactive). The GI50 (786-0) was > 100 µM (inactive), the GI50 (SK-OV-3) was > 100 µM (inactive) and the GI50 (OVCAR-8) was > 100 µM (inactive). The GI50 (SN12C) was 78.9 µM (inactive), the GI50 (SW-620) was > 100 µM (inactive) and the GI50 (SK-MEL-28) was > 100 µM (inactive). For the same molecule, the GI50 (NCI-H23) was > 100 µM (inactive), the GI50 (NCI-H460) was 63.8 µM (inactive) and the GI50 (ACHN) was 81.1 µM (inactive). The GI50 (A498) was 74.1 µM (inactive), the GI50 (OVCAR-4) was > 100 µM (inactive) and the GI50 (RPMI-8226) was 61.2 µM (inactive). For the same molecule, the GI50 (SF-539) was > 100 µM (inactive), the GI50 (HCT-15) was > 100 µM and the GI50 (K562) was 38.5 µM (inactive). The GI50 (OVCAR-3) was 65.5 µM (inactive), the GI50 (HOP-92) was > 100 µM (inactive) and the GI50 (LOX IMVI) was 69.2 µM (inactive). For the same molecule, the GI50 (OVCAR-5) was > 100 µM (inactive), the GI50 (NCI-H522) was 65.9 µM (inactive) and the GI50 (HOP-62) was > 100 µM (inactive). The GI50 (DU-145) was > 100 µM (inactive), the GI50 (COLO 205) was > 100 µM (inactive) and the GI50 (CCRF-CEM) was > 100 µM (inactive). The GI50 (HCC 2998) was > 100 µM (inactive), the GI50 (HL-60) was > 100 µM (inactive) and the GI50 (IGROV-1) was > 100 µM (inactive). For the same molecule, the GI50 (MOLT-4) was 42.4 µM (inactive), the GI50 (EKVX) was 76.9 µM (inactive) and the GI50 (SF-268) was > 100 µM (inactive). The GI50 (SNB-75) was > 100 µM (inactive).

`O/N=C1/Nc2cc(Cl)ccc2C(=S)N2CSCC12` (stereo not drawn) was tested, and the GI50 (CAKI-1) was > 100 µM (inactive), the GI50 (MDA-MB-435) was > 100 µM (inactive) and the GI50 (T47D) was > 100 µM (inactive). For the same molecule, the GI50 (UACC-257) was > 100 µM (inactive), the GI50 (PC-3) was > 100 µM (inactive) and the GI50 (UACC-62) was > 100 µM (inactive). The GI50 (SNB-19) was > 100 µM (inactive), the GI50 (U-251) was > 100 µM (inactive) and the GI50 (Hs-578T) was > 100 µM (inactive). The GI50 (A549) was > 100 µM (inactive), the GI50 (Malme-3M) was > 100 µM (inactive) and the GI50 (MDA-MB-231) was > 100 µM (inactive). The GI50 (SK-MEL-5) was > 100 µM (inactive), the GI50 (MCF7) was > 100 µM (inactive) and the GI50 (SK-MEL-2) was > 100 µM (inactive). For the same molecule, the GI50 (KM12) was > 100 µM (inactive), the GI50 (M14) was > 100 µM (inactive) and the GI50 (MDA-N) was > 100 µM (inactive). For the same molecule, the GI50 (NCI-H226) was > 100 µM (inactive), the GI50 (SF-295) was > 100 µM (inactive) and the GI50 (HT-29) was > 100 µM (inactive). For the same molecule, the GI50 (HCT-116) was > 100 µM (inactive), the GI50 (UO-31) was > 100 µM (inactive) and the GI50 (BT-549) was > 100 µM (inactive). For the same molecule, the GI50 (RXF 393) was > 100 µM (inactive), the GI50 (NCI/ADR-RES) was > 100 µM (inactive) and the GI50 (TK-10) was > 100 µM (inactive). For the same molecule, the GI50 (786-0) was > 100 µM (inactive), the GI50 (SK-OV-3) was > 100 µM (inactive) and the GI50 (OVCAR-8) was > 100 µM (inactive). The GI50 (SN12C) was > 100 µM (inactive), the GI50 (SW-620) was > 100 µM (inactive) and the GI50 (SK-MEL-28) was > 100 µM (inactive). The GI50 (NCI-H460) was > 100 µM (inactive), the GI50 (ACHN) was > 100 µM (inactive) and the GI50 (A498) was > 100 µM (inactive). The GI50 (OVCAR-4) was > 100 µM (inactive), the GI50 (RPMI-8226) was > 100 µM (inactive) and the GI50 (HCT-15) was > 100 µM. The GI50 (K562) was 87.3 µM (inactive), the GI50 (OVCAR-3) was > 100 µM (inactive) and the GI50 (LOX IMVI) was > 100 µM (inactive). For the same molecule, the GI50 (OVCAR-5) was > 100 µM (inactive), the GI50 (NCI-H522) was > 100 µM (inactive) and the GI50 (HOP-62) was > 100 µM (inactive). The GI50 (DU-145) was > 100 µM (inactive), the GI50 (COLO 205) was > 100 µM (inactive) and the GI50 (SR) was > 100 µM (inactive). For the same molecule, the GI50 (CCRF-CEM) was > 100 µM (inactive), the GI50 (HCC 2998) was > 100 µM (inactive) and the GI50 (IGROV-1) was > 100 µM (inactive). The GI50 (MOLT-4) was > 100 µM (inactive), the GI50 (EKVX) was > 100 µM (inactive) and the GI50 (SF-268) was > 100 µM (inactive). For the same molecule, the GI50 (SNB-75) was > 100 µM (inactive).

With `O=C(N/N=C(COc1ccc(Cl)cc1)\N=C\c1ccncc1)c1ccncc1` the GI50 (CAKI-1) was > 100 µM (inactive), the GI50 (MDA-MB-435) was > 100 µM (inactive) and the GI50 (T47D) was 96.4 µM (inactive). The GI50 (UACC-257) was > 100 µM (inactive), the GI50 (PC-3) was > 100 µM (inactive) and the GI50 (UACC-62) was > 100 µM (inactive). For the same molecule, the GI50 (SNB-19) was > 100 µM (inactive), the GI50 (U-251) was > 100 µM (inactive) and the GI50 (Hs-578T) was > 100 µM (inactive). The GI50 (A549) was > 100 µM (inactive), the GI50 (Malme-3M) was > 100 µM (inactive) and the GI50 (MDA-MB-231) was > 100 µM (inactive). For the same molecule, the GI50 (MCF7) was > 100 µM (inactive), the GI50 (SK-MEL-2) was > 100 µM (inactive) and the GI50 (KM12) was > 100 µM (inactive). For the same molecule, the GI50 (M14) was > 100 µM (inactive), the GI50 (MDA-N) was > 100 µM (inactive) and the GI50 (NCI-H226) was > 100 µM (inactive). For the same molecule, the GI50 (SF-295) was > 100 µM (inactive), the GI50 (HT-29) was > 100 µM (inactive) and the GI50 (HCT-116) was > 100 µM (inactive). The GI50 (BT-549) was > 100 µM (inactive), the GI50 (RXF 393) was 57.1 µM (inactive) and the GI50 (NCI/ADR-RES) was > 100 µM (inactive). For the same molecule, the GI50 (TK-10) was > 100 µM (inactive), the GI50 (786-0) was > 100 µM (inactive) and the GI50 (SK-OV-3) was > 100 µM (inactive). For the same molecule, the GI50 (OVCAR-8) was > 100 µM (inactive), the GI50 (SN12C) was > 100 µM (inactive) and the GI50 (SW-620) was > 100 µM (inactive). The GI50 (SK-MEL-28) was > 100 µM (inactive), the GI50 (NCI-H23) was > 100 µM (inactive) and the GI50 (NCI-H460) was > 100 µM (inactive). The GI50 (ACHN) was > 100 µM (inactive), the GI50 (A498) was 45.9 µM (inactive) and the GI50 (OVCAR-4) was > 100 µM (inactive). The GI50 (RPMI-8226) was 83.8 µM (inactive), the GI50 (SF-539) was > 100 µM (inactive) and the GI50 (HCT-15) was > 100 µM. The GI50 (K562) was > 100 µM (inactive), the GI50 (OVCAR-3) was > 100 µM (inactive) and the GI50 (HOP-92) was 43.3 µM (inactive). For the same molecule, the GI50 (LOX IMVI) was > 100 µM (inactive), the GI50 (OVCAR-5) was > 100 µM (inactive) and the GI50 (NCI-H522) was 84.5 µM (inactive). The GI50 (HOP-62) was > 100 µM (inactive), the GI50 (DU-145) was > 100 µM (inactive) and the GI50 (COLO 205) was > 100 µM (inactive). The GI50 (CCRF-CEM) was > 100 µM (inactive), the GI50 (HCC 2998) was > 100 µM (inactive) and the GI50 (HL-60) was > 100 µM (inactive). For the same molecule, the GI50 (IGROV-1) was > 100 µM (inactive), the GI50 (MOLT-4) was > 100 µM (inactive) and the GI50 (EKVX) was > 100 µM (inactive). The GI50 (SF-268) was > 100 µM (inactive).
